Test results as given in BindingDB's records for doi:10.1021/jm301755q (University Health Network, 2013).
pIC50, pKi: −log10 of the molar value.

How the values were obtained:
[1] = biological target: Protein-arginine deiminase type-4 (Homo sapiens) (UniProt Q9UM07); experiment: Inhibition of PAD4 (unknown origin) at 52 degC
[2] = biological target: Protein-arginine deiminase type-4 (Homo sapiens) (UniProt Q9UM07); experiment: Inhibition of PAD4 (unknown origin) at 37 degC

Sequence of Protein-arginine deiminase type-4 (Homo sapiens) (Q9UM07 whole entry, looked up): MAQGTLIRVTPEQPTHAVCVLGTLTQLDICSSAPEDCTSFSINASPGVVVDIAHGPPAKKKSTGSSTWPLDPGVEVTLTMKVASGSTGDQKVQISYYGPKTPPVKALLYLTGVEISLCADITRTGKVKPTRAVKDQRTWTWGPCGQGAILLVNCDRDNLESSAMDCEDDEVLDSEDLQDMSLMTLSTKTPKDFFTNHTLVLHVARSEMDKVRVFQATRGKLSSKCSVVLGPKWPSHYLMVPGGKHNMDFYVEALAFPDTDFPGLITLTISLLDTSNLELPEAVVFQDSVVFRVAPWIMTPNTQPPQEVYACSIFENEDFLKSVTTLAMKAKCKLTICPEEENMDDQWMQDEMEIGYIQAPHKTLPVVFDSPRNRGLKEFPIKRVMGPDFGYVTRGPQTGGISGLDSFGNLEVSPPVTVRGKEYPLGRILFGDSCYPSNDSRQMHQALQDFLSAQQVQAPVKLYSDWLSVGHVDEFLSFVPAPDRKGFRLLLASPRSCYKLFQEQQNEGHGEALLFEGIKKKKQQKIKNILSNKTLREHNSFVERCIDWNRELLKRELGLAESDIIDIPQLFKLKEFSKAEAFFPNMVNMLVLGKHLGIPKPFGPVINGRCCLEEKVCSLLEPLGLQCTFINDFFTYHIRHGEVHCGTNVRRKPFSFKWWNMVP

Row | pIC50 [1] | pKi [1] | pIC50 [2] | pKi [2] | SMILES
1 | 3.10 | 4.16 | 2.84 | 3.90 | CC(=NN=C(N)N)C1=CC(C)(C)CCC1
2 | 3.12 | 4.18 | 2.75 | 3.82 | CC1CCc2c(sc3ncn(N)c(=N)c23)C1 (stereo unspecified)
3 | 2.37 | 3.43 | 2.86 | 3.88 | CC1(C)NC(=O)N(CN2CCNCC2)C1=O
4 | 2.58 | 3.64 | 2.88 | 3.94 | C[C@H]1C(=O)Nc2ccc(-c3csc(N=C(N)N)n3)cc21
